Data on one molecule can be found in patent EP2403490B1, “AN IMPROVED DRY POWDER DRUG DELIVERY SYSTEM” (MannKind Corporation, priority 2009, dated 2010).

What all share (type): physicochemical
Series [1] is described as follows: Geometric particle size of emitted formulations by VMGD, laser diffraction (Example 6). Conditions: 56 % trans. The text has this:
Laser diffraction of dry powder formulations emitted from dry powder inhalers is a common methodology employed to characterize the level of de-agglomeration subjected to a powder. The methodology indicates a measure of geometric size rather than aerodynamic size as occurring in industry standard impaction methodologies. Typically, the geometric size of the emitted powder includes a volumetric distribution characterized by the median particle size, VMGD. Importantly, geometric sizes of the emitted particles are discerned with heightened resolution as compared to the aerodynamic sizes provided by impaction methods. Smaller sizes are preferred and result in greater likelihood of individual particles being delivered to the pulmonary tract. Thus, differences in inhaler de-agglomeration and ultimate performance can be easier to resolve with diffraction. In these experiments, an inhaler as specified in Example 3 and a predicate inhaler are tested with laser diffraction at pressures analogous to actual patient inspiratory capacities to determine the effectiveness of the inhalation system to de-agglomerate powder formulations. […] Reported in Table 5 are a VMGD and an efficiency of the container emptying during the testing. […]

Series [2] in a line: In vitro performance DPI 2 vs MEDTONE delivery system, laser diffraction and emitted mass (Example 7). Conditions: fill weight 10 mg, 4 kPa.
Excerpt: This system includes dry powder formulations, pre-metered into single-use cartridges and inserted into a high resistance, breath-powered, re-usable MEDTONE(R) inhaler. […] In vitro powder performance for these systems was compared for various parameter of inhaler performance. For DPI 2 a single discharge per cartridge was used as compared to two discharges per cartridge in the MEDTONE(R) system.
Particle sizing by laser diffraction and quantification of emitted mass as described above were used in these experiments. A laser diffraction instrument (Sympatec HELOS) was adapted with a novel pressurized inhaler chamber to facilitate analysis of powder plumes. MTDS cartridges were discharged twice per determination versus once with DPI 2.
A short description of series [3]: Powder flowability (Hausner ratio, compressibility index, angle of repose, critical orifice testing). The source says:
The compressibility index (Cl) can be calculated from the Hausner ratio (HR) as C1 = 100 × (1−(1/HR)). [formula]
FDKP microparticles either unmodified or containing a drug, for example insulin, constitute highly cohesive powders.

Setting [4] is: DPI 2, single discharge, 15 cartridges.
Where [5] appears, read: MEDTONE® (MTDS), two discharges, 30 cartridges.

For `O=C(O)/C=C/C(=O)NCCCCC1NC(=O)C(CCCCNC(=O)/C=C/C(=O)O)NC1=O` (stereo not shown) [FDKP, bis-3,6-(N-fumaryl-4-aminobutyl)-2,5-diketopiperazine], the VMGD turned out to be 6.800 micron in series [1] (DPI 2, SSA 55 m2/g, pressure drop 4 kPa) and 21.200 micron in series [1] (MEDTONE®, SSA 55, 4 kPa). The “Ave. Geometric SD” value in series [2] (setting [4]) was found to be 3.79 µm; in series [2] (setting [5]), 2.94 µm. For the same molecule, the “Ave. VMGD” value in series [2] (setting [4]) is listed as 6.84 µm; in series [2] (setting [5]), 21.21 µm. For the same molecule, in series [3], the angle of repose was found to be 40 °.
